Results taken from US8481730B2, “Method of synthesis of Bosentan, its polymorphic forms and its salts” (CIPLA Limited, priority 2008, dated 2013).

Details: on exposure to air; "stable" = non-hygroscopic, does not pick up moisture even in a highly humid atmosphere
Text: According to another aspect of the present invention, there is provided anhydrous bosentan.

COc1ccccc1Oc1c(NS(=O)(=O)c2ccc(C(C)(C)C)cc2)nc(-c2ncccn2)nc1OCCO [Form B, Bosentan Form B]
stability / hygroscopicity (moisture pick-up): stable and non-hygroscopic
